From patent publication US9458124B2, “Substituted pyran derivatives” (Wayne State University, priority 2013, dated 2016) come the findings set out here.

Counter-ions that a name gives are not always drawn.

One data set deals with rats. The data set can be described thus: Forced swimming test (animal model of depression), duration of immobility. The format is in vivo, rat. To be noted: sub-chronic oral administration, P<0.01. As to the method: Compound D-525 was evaluated in Force Swim test which is a well-known animal model of depression. The test procedure consisted of a pretest and test session separated by 24 h. Drugs or vehicle were administered orally (p.o) by following the timeline as described in the standard protocol. Each rat underwent a 5-min swim session following drug administration, which was videotaped and scored later.
All drugs were prepared freshly on the test days. Compound D-525 and imipramine were dissolved in deionized water. All drugs and vehicles were administered p.o. D-525 was administered at a dose of 12.5 and 25 mg/kg. An individual, blinded to the treatment, scored the videotapes for immobility. Immobility scores were analyzed by one way ANOVA test which indicated significant difference between drug treated animals and vehicle.
FIG. 11 provides a bar chart showing the effect of sub-chronic oral administration of vehicle and D-525 on the duration of immobility in the forced swimming test in rats. […] Asterisks indicate a statistically significant difference toward control group that received saline p.o. **P<0.01. Each treatment group contained four to seven rats.

A further data set has as its target T1, NET (Rattus norvegicus, UniProt Q63380).
T1 construct: from tissue; host or cells: rat brain
The data set can be described thus: NET uptake inhibition, [3H]DA, rat brain. The format is biochemical. The note with it: number in parentheses within cell.

The target of another data set is T2, SERT (Rattus norvegicus, UniProt P31652).
T2 construct: from tissue; host or cells: rat brain
In words: SERT uptake inhibition, [3H]-5-HT, rat brain. The format is biochemical. To be noted: number in parentheses within cell.

A further data set deals with T3, DAT (Rattus norvegicus, UniProt P23977).
T3 construct: from tissue; host or cells: rat brain
The data set can be described thus: DAT uptake inhibition, [3H]DA, rat brain. To be noted: number in parentheses within cell. The format is biochemical.

T2 sequence (P31652 whole entry): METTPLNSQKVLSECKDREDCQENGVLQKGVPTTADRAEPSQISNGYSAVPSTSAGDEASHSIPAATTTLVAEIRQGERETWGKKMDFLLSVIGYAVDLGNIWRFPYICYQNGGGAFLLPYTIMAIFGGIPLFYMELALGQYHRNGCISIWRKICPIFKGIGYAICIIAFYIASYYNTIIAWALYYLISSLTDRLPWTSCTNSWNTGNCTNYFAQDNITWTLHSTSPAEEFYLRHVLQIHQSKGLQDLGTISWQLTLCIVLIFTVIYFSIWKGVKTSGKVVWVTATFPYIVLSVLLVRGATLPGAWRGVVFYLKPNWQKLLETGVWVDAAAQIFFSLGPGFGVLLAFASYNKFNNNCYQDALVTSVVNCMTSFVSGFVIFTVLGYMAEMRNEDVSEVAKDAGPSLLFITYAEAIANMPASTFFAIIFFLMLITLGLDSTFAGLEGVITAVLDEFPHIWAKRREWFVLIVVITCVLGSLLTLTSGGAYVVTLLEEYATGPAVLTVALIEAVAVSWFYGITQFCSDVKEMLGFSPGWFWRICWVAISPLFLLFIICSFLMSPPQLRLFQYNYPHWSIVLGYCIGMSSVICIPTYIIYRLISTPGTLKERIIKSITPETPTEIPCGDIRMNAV
T1 sequence (Q63380 1-617): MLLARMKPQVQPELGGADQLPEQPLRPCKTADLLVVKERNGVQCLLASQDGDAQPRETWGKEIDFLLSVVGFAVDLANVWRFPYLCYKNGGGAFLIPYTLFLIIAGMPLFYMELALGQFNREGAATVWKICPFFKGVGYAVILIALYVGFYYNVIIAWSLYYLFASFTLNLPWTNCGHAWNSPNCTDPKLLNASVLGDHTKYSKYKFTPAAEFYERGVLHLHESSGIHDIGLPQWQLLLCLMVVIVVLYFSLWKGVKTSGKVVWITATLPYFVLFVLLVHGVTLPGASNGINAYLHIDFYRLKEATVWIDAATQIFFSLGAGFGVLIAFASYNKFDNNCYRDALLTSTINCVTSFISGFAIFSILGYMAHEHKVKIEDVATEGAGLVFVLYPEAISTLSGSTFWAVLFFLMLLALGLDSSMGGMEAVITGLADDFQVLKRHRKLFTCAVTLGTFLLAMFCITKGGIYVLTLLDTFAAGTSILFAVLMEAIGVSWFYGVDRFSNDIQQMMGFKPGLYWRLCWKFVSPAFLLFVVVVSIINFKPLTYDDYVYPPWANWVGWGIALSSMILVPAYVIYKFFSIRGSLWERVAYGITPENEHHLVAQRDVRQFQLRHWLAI
T3 sequence (P23977 whole entry): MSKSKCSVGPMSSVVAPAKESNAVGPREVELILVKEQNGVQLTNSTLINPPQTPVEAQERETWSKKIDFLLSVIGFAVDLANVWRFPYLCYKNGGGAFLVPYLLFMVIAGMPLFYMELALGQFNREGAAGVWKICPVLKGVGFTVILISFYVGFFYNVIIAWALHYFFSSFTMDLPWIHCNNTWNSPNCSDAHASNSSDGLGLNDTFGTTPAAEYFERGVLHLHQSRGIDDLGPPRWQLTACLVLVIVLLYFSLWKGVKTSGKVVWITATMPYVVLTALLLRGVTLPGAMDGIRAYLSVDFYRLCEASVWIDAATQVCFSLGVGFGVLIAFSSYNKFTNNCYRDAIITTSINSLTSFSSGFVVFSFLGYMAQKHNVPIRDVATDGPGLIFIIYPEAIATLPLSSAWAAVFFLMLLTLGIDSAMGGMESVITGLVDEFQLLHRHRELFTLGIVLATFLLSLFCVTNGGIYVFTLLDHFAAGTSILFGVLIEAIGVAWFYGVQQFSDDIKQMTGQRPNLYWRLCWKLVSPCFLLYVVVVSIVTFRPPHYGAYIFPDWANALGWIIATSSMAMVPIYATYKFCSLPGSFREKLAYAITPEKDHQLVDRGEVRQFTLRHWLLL

Consider `c1ccc(C(c2ccccc2)[C@@H]2CC[C@H](NCc3ccc4occc4c3)CO2)cc1` (as salt: hydrochloride) [2a, D-484, (3S,6S)-6-benzhydryl-N-(benzofuran-5-ylmethyl)tetrahydro-2H-pyran-3-amine], for which the melting point (commonly the temperature of the solid-liquid transition) lay within 140 to 142 °C.

`O[C@@H]1C[C@@H](C(c2ccccc2)c2ccccc2)OC[C@H]1NCc1ccc2occc2c1` (as salt: hydrochloride) [4a, D-485, (2S,4R,5R)-2-benzhydryl-5-((benzofuran-5-ylmethyl)amino)tetrahydro-2H-pyran-4-ol] displayed a melting point of 204 to 206 °C.

As to `COc1cc(CN[C@@H]2CO[C@H](C(c3ccccc3)c3ccccc3)C[C@H]2O)ccc1O` (as salt: hydrochloride) [4c, D-501, (2S,4R,5R)-2-benzhydryl-5-((4-hydroxy-3-methoxybenzyl)amino)tetrahydro-2H-pyran-4-ol], the melting point is 203 to 205 °C.

The compound `COc1ccc(CN[C@@H]2CO[C@H](C(c3ccccc3)c3ccccc3)C[C@H]2O)cc1O` (as salt: hydrochloride) [4d, D-502, (2S,4R,5R)-2-benzhydryl-5-((3-hydroxy-4-methoxybenzyl)amino)tetrahydro-2H-pyran-4-ol] showed a melting point of 168 to 170 °C.

The compound `COc1cc(O)cc(CN[C@@H]2CO[C@H](C(c3ccccc3)c3ccccc3)C[C@H]2O)c1` (as salt: hydrochloride) [4e, D-503, (2S,4R,5R)-2-benzhydryl-5-((3-hydroxy-5-methoxybenzyl)amino)tetrahydro-2H-pyran-4-ol] yielded a melting point of 160 to 162 °C.

`Oc1cc(O)cc(CN[C@@H]2CO[C@H](C(c3ccccc3)c3ccccc3)C[C@H]2O)c1` (as salt: hydrochloride) [4f, D-542, 5-((((3R,4R,6S)-6-benzhydryl-4-hydroxytetrahydro-2H-pyran-3-yl)amino)methyl)benzene-1,3-diol] gave a melting point of 168 to 170 °C.

`COc1cccc(CN[C@@H]2CO[C@H](C(c3ccccc3)c3ccccc3)C[C@H]2O)c1` (as salt: hydrochloride) [4g, D-523, (2S,4R,5R)-2-benzhydryl-5-((3-methoxybenzyl)amino)tetrahydro-2H-pyran-4-ol] gave a melting point of 197 to 199 °C.

In the case of `c1ccc(C(c2ccccc2)[C@@H]2CC[C@H](NCc3ccc4cc[nH]c4c3)CO2)cc1` (as salt: oxalate) [2b, D-543], the melting point lay in the range of 194 to 196 °C.

Compound `O[C@@H]1C[C@@H](C(c2ccccc2)c2ccccc2)OC[C@H]1NCc1ccc2cc[nH]c2c1` (as salt: oxalate) [4b, D-544, (2S,4R,5R)-5-(((1H-indol-6-yl)methyl)amino)-2-benzhydryltetrahydro-2H-pyran-4-ol] had a melting point of 152 to 154 °C.

Take `Cn1c(=O)oc2cc(CN[C@@H]3CO[C@H](C(c4ccc(F)cc4)c4ccc(F)cc4)C[C@H]3O)ccc21` [6f, D-525, 6-((((3R,4R,6S)-6-(bis(4-fluorophenyl)methyl)-4-hydroxytetrahydro-2H-pyran-3-yl)amino)methyl)-3-methylbenzo[d]oxazol-2(3H)-one]: the “effect on duration of immobility in the forced swimming test vs vehicle (Dunnett's analysis)” value in the data set with rats (12 mg/kg) and in the data set with rats (25 mg/kg) was “statistically significant different compared to vehicle” throughout. The Ki (in general, a measure of affinity in units of concentration, obtained from inhibition or displacement) amounted to 25.8 ± 7.7 nM at NET, 26.9 ± 2.6 nM on SERT and 25.3 ± 6.2 nM on DAT.
